{
  "source": "paper PMC10102027",
  "about": "“Helquat dyes targeting G-quadruplexes as a new class of anti-HIV-1 inhibitors” (Scientific Reports, 2023)",
  "key": {"[1]": {"system": "G-quadruplexes in the HIV-1 LTR (G4 LTR FRET oligonucleotide)", "test": "FRET melting assay", "type": "binding", "conditions": "2 μM compound, 0.2 μM oligonucleotide; for Tm: 100 mM KCl, mean and standard error, three experiments; for ΔTm: average Tm minus average Tm of PBS"}, "HIV-1 (NL4-3 strain)": {"system": "HIV-1 (NL4-3 strain)", "test": "CPE-based antiviral assay in HIV-1-infected MT-4 cells (XTT)", "type": "cell-based", "conditions": "Human immunodeficiency virus 1, NL43, MT4, 120 h, cytopathic effect-based assay, MT-4 cells infected by HIV-1 (NL4-3 strain), 5 days post-infection", "description": "(§1) Based on a facile [2 + 2 + 2]‐cycloisomerization strategy, a robust three‐step synthetic entry into a novel family of helical extended diquats (helquats) was developed. After a straightforward Knoevenagel condensation of the respective helquat parent with different aldehydes (Fig. 2A), more than 500 helquat-based compounds were synthesized and screened for anti-HIV-1 activity in an assay based on the inhibition of the virus-induced cytopathic effect in MT-4 cells, evaluated after 5 days post-infection by an XTT assay. In parallel with the screening, the XTT assay was also used to determine the cytotoxicity of all compounds (Fig. 2B; for more information on the synthesis and characterization of the compounds, see the Supplementary Information). […]\n(§2) XTT screening. MT-4 cells were seeded in 80 µl of the RPMI without Phenol Red in the amount of 3x10^4 cells per well of a 96-well plate. 10 µl of tested compounds (500 µM at 5% DMSO) or controls (5% DMSO at PBS, AZT 1mM, SQV 100 µM) were added to the cells; after one-hour incubation at 37 °C, HIV-1 (NL4-3 strain) was added with MOI = 0.05 and the infected cells were cultivated for five days.\nThe viability of the cells was measured by the XTT cell viability and proliferation assay. Briefly, 50 µl of the XTT solution with the addition of PMS (both VWR) was added to the cultivation media and incubated in a humidified incubator maintained at 37 °C with 5% CO2 for four hours, after which absorbance at 560 nm was measured on a VICTOR plate reader (PerkinElmer). […]\n(§3) For compounds selected as hits in the initial screening, the effective concentration that inhibits 50% of the viral activity (EC50) and the cytotoxic concentration that reduces the MT -4 cell viability by 50% (CC50) were determined. Viral activity was evaluated after five days as an HIV-1-induced cytopathic effect quantified by the XTT assay. Selected hits were tested at two-fold serial dilutions from 50 µM concentration, and the drug concentrations required to reduce the viral cytopathic effect by 50% (EC 50) as well as the drug concentrations that reduced MT-4 cell viability by 50% (CC50) were calculated by nonlinear regression using GraphPad Prism v.8.0.0 (GraphPad Software)."}, "[2]": {"system": "HIV-1 LTR G-quadruplex template (G4 LTR Stop)", "test": "Taq polymerase stop assay", "type": "biochemical", "conditions": "for Fold change, all regions (A, B and C) together: normalized against control; for Fold change: A (G-patch 6′) / Fold change: B (G-patch 6) / Fold change: C (G-patch 5): 2.5 µM, pixel intensity normalized against negative control; for G-quadruplex stabilization / stop band pattern: Taq polymerase pausing at G-patches, 1-5 μM", "experimental": "To address specifically the positions in the HIV-1 promoter region that are affected by the binding of G4-stabilizing agents, we performed a Taq polymerase stop assay. The wild-type LTR oligonucleotide was extended at the […] to include a primer-annealing region and used as a template for a single-cycle Taq polymerase reaction. The elongation of the radioactively labelled primer was performed at 45 °C in the presence or absence of the tested compounds and controls.\nA Taq polymerase stop assay was carried out as described in a previous study. Briefly, the primer (G4 LTR primer, Supplementary Table S1) was 5′-end labelled with [γ-^32P]ATP using T4 polynucleotide kinase at 37 °C for 30 min. The T4 polynucleotide kinase was then inactivated by incubation at 65 °C for 5 min. The radioactively labelled primer was column-purified and stored at − 20 °C for further use. The labelled primer (1.7 pmol) was annealed to the template (2.1 pmol) in the LiCaco buffer and extended with the Go Taq DNA polymerase (2U/reaction, Promega) at 45 °C for 45 min. Samples were incubated with G-quadruplex-ligands at 45 °C for 45 min before DNA polymerase addition. The reactions were stopped by a denaturing solution (80% formamide, 10% glycerol, 0.025% xylen cyanol, 0.025% bromphenol blue and 10 mM EDTA pH 8); extension products were separated on 15% denaturing gel and visualized by phosphorimaging. The pixel intensity of bands was calculated using 1D gel analysis in ImageQuant TL software version 8.1 (GE HealthCare) after automatic background subtraction by Rolling Ball method."}, "in vitro": {"test": "in vitro", "type": "cell-based", "conditions": "human", "description": "as §1, §2\nThe viability of the cells was measured by the XTT cell viability and proliferation assay. Briefly, 50 µl of the XTT solution with the addition of PMS (both VWR) was added to the cultivation media and incubated in a humidified incubator maintained at 37 °C with 5% CO2 for four hours, after which absorbance at 560 nm was measured on a VICTOR plate reader (PerkinElmer).\nThe cytotoxicity of the tested compounds was evaluated separately without virus addition and analysed by the same assay.\nas §3"}},
  "note": "Entries after “also recorded” stand apart in the source; their conditions may differ.",
  "data": [
    {"smiles": "C(=C\\c1cc(/C=C/c2ccc3c(c2)CCO3)[n+]2c(c1)-c1c(ccc3c1-c1cccc[n+]1CCC3)CCC2)/c1ccc2c(c1)CCO2", "note": "[Compound 14]", "values": [
      {"measurement": "Tm", "setting": "[1]", "result": "64 ± 0.2", "unit": "°C"},
      {"measurement": "ΔTm", "setting": "[1]", "result": 13, "unit": "°C"},
      {"measurement": "EC50", "setting": "HIV-1 (NL4-3 strain)", "result": 2.7, "unit": "µM"},
      {"measurement": "Fold change, all regions (A, B and C) together", "setting": "[2]; 1 μM", "result": 1.2},
      {"measurement": "Fold change, all regions (A, B and C) together", "setting": "[2]; 2.5 μM", "result": 1.7},
      {"measurement": "Fold change: A (G-patch 6′)", "setting": "[2]", "result": 1.4},
      {"measurement": "Fold change: B (G-patch 6)", "setting": "[2]", "result": 2.0},
      {"measurement": "Fold change: C (G-patch 5)", "setting": "[2]", "result": 1.5},
      {"measurement": "Fold change, all regions (A, B and C) together", "setting": "[2]; 5 μM", "result": 1.8},
      {"measurement": "G-quadruplex stabilization / stop band pattern", "setting": "[2]", "result": "stop bands only in G-patch 6"},
      {"measurement": "CC50 at 5 days", "setting": "in vitro", "result": "> 50", "unit": "µM"}
    ]},
    {"smiles": "Cn1cc(/C=C/c2cc(/C=C/c3cn(C)c4ccccc34)[n+]3c(c2)-c2c(ccc4c2-c2cccc[n+]2CCC4)CCC3)c2ccccc21", "note": "[Compound 12]", "values": [
      {"measurement": "Tm", "setting": "[1]", "result": "79 ± 0.2", "unit": "°C"},
      {"measurement": "ΔTm", "setting": "[1]", "result": 28, "unit": "°C"},
      {"measurement": "EC50", "setting": "HIV-1 (NL4-3 strain)", "result": 2.68, "unit": "µM"},
      {"measurement": "Fold change, all regions (A, B and C) together", "setting": "[2]; 1 μM", "result": 1.4},
      {"measurement": "Fold change, all regions (A, B and C) together", "setting": "[2]; 2.5 μM", "result": 1.9},
      {"measurement": "Fold change: A (G-patch 6′)", "setting": "[2]", "result": 1.9},
      {"measurement": "Fold change: B (G-patch 6)", "setting": "[2]", "result": 2.1},
      {"measurement": "Fold change: C (G-patch 5)", "setting": "[2]", "result": 1.5},
      {"measurement": "Fold change, all regions (A, B and C) together", "setting": "[2]; 5 μM", "result": 1.8},
      {"measurement": "G-quadruplex stabilization / stop band pattern", "setting": "[2]", "result": "exhibit their stabilization effect even at 1 μM concentration; also recorded: stop bands only in G-patch 6"},
      {"measurement": "CC50 at 5 days", "setting": "in vitro", "result": "> 50", "unit": "µM"}
    ]},
    {"smiles": "COc1ccc2ccccc2c1/C=C/c1cc[n+]2c(c1)-c1c(c(C)c(C)c3c1-c1cc(/C=C/c4c(OC)ccc5ccccc45)cc[n+]1CC3)CC2", "note": "[Compound 15]", "values": [
      {"measurement": "Tm", "setting": "[1]", "result": "70 ± 1.0", "unit": "°C"},
      {"measurement": "ΔTm", "setting": "[1]", "result": 19, "unit": "°C"},
      {"measurement": "EC50", "setting": "HIV-1 (NL4-3 strain)", "result": 2.74, "unit": "µM"},
      {"measurement": "Fold change, all regions (A, B and C) together", "setting": "[2]; 1 μM", "result": 1.6},
      {"measurement": "Fold change, all regions (A, B and C) together", "setting": "[2]; 2.5 μM", "result": 2.4},
      {"measurement": "Fold change: A (G-patch 6′)", "setting": "[2]", "result": 2.8},
      {"measurement": "Fold change: B (G-patch 6)", "setting": "[2]", "result": 2.5},
      {"measurement": "Fold change: C (G-patch 5)", "setting": "[2]", "result": 1.8},
      {"measurement": "Fold change, all regions (A, B and C) together", "setting": "[2]; 5 μM", "result": 2.5},
      {"measurement": "G-quadruplex stabilization / stop band pattern", "setting": "[2]", "result": "strong stop bands also in G-patch 6′; also recorded: exhibit their stabilization effect even at 1 μM concentration"},
      {"measurement": "CC50 at 5 days", "setting": "in vitro", "result": "> 50", "unit": "µM"}
    ]}
  ]
}
